pIC50: −log10 of the molar value.
target: T1, α4β7 integrin (Homo sapiens, UniProt P13612+P26010); assay: MAdCAM-1/α4β7 integrin binding inhibitory activity evaluation test in presence of serum; assay type: cell-based; details: RPMI-8866 cells, recombinant mouse MAdCAM-1/Fc, 50% human serum; read-out: α4β7 Serum Added IC50
T1 construct: a cell line RPMI-8866, which is known to express α4β7 integrin; endogenous in cells; host or cells: RPMI-8866 (human B cell line)
T1 sequence (P13612 34-1032): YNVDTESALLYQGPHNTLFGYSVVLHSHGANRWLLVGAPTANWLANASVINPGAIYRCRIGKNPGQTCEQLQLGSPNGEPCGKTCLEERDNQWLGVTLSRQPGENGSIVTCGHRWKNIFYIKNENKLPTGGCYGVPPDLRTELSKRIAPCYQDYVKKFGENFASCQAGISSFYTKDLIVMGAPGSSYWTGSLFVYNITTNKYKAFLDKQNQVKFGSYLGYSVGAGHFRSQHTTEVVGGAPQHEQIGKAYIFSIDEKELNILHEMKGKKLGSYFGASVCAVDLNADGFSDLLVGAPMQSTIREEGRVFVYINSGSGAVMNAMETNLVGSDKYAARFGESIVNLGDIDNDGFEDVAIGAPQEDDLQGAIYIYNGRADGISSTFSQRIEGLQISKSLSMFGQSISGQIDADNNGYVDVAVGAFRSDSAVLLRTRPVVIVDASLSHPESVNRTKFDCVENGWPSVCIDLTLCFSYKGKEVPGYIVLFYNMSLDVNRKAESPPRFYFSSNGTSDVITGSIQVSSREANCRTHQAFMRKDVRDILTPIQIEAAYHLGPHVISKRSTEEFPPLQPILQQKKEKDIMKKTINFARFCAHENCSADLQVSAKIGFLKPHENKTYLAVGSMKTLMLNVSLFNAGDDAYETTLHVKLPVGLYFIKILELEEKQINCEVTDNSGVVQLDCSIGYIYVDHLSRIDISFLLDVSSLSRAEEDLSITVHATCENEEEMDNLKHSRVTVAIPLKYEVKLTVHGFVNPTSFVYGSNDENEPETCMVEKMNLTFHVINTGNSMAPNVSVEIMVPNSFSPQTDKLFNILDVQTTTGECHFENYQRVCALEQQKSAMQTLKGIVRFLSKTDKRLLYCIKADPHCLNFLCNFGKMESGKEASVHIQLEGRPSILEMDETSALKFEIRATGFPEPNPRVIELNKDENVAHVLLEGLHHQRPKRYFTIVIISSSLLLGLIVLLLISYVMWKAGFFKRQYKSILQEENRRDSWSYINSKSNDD
T1 sequence (P26010 20-798): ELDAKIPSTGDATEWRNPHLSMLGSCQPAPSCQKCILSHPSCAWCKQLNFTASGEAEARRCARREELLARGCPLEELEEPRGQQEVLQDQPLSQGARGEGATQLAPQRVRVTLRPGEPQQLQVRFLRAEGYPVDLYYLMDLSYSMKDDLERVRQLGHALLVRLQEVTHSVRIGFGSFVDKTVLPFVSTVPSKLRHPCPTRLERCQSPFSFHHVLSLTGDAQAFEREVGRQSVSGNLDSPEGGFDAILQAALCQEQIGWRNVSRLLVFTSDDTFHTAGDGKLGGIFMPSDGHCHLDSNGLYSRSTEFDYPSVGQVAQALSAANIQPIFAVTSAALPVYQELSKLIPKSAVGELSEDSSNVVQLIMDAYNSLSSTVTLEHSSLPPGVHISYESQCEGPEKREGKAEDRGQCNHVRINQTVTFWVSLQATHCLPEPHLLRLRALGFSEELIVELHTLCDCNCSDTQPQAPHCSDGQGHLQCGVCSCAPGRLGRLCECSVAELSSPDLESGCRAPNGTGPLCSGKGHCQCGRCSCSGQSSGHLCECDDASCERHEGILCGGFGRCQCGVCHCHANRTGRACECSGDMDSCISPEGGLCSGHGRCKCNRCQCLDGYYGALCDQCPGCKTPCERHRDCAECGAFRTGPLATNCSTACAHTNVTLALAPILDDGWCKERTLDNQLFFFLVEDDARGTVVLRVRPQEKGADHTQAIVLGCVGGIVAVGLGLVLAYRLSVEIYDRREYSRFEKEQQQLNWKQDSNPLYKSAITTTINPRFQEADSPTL
Protocol: (3) MAdCAM-1/α4β7 Integrin Binding Inhibitory Activity Evaluation Test in Presence of Serum (1)
Each test substance was measured in terms of an ability to inhibit the MAdCAM-1 binding of a human B cell line, namely, a cell line RPMI-8866, which is known to express α4β7 integrin.
A solution of recombinant mouse MAdCAM-1/Fc (R&D Systems, Inc.) (1 μg/mL) diluted with a buffer A (carbonate buffer, pH 9.6) was added in an amount of 50 μL/well to a 96-well microtiter plate, followed by incubation at 4° C. overnight. After the plate was washed with PBS once, 150 μL/well of Block Ace (Snow Brand Milk Products Co., Ltd.) was added, followed by incubation at room temperature for 2 hours. After removal, the plate was washed with PBS once.
Then, 100 μL of the RPMI-8866 cells (2×10^6 cells/mL) and 100 of the test substance at each of various concentrations diluted with a binding buffer (DMEM containing 40 mM HEPES, 0.2% BSA, and 4 mM MnCl2) were added to the plate coated with the MAdCAM-1/Fc (5×10^5 cells/well) such that 50% human serum was contained at the final concentration. Then, incubation was allowed to proceed at 30° C. for 15 to 60 minutes. After the cells were bound to the wells, the plate was washed with PBS to remove unbound cells. A buffer C (PBS containing 1.5% Triton X-100) was added in an amount 50 μL/well to the plate to lyse the bound RPMI-8866 cells. After 30 μL of a substrate buffer (Promega, CytoTox 96 Non-Radioactive Cytotoxicity Assay) was added to 30 μL of the cell lysate, a reaction was allowed to proceed at room temperature in the dark for 30 minutes. After 30 μL of a stop solution (Promega, CytoTox 96 Non-Radioactive Cytotoxicity Assay) was added to each, and then an absorbance at 490 nm was measured using a plate reader. The absorbance obtained here represents a detection result of an activity of lactate dehydrogenase (LDH) eluted in the supernatant of each well, that is, the absorbance is proportional to the number of RPMI-8866 cells bound to the MAdCAM-1 and thus remaining on the plate. The test was performed in duplicate. Provided that the absorbance of the well containing no test substance was 100%, a cell binding rate with the test substance at each of the various concentrations was figured out, and a concentration IC50 which brought about 50% binding inhibition was calculated.

Row | SMILES | pIC50
1 | Cn1c(=O)n(-c2ccc(C[C@H](NC(=O)c3cc(F)c(NS(=O)(=O)c4ccc(NC(=O)C5(O)CC5)cc4)cc3F)C(=O)O)cc2)c(=O)c2ccncc21 [Compound A23] | 7.49
2 | Cc1cn(C)c(=O)n(-c2ccc(C[C@H](NC(=O)c3cc(F)c(NS(=O)(=O)c4ccc(NC(=O)C(C)(C)C)s4)cc3F)C(=O)O)cn2)c1=O [Compound A73] | 7.43
3 | CN1C(=O)N(c2ccc(S(=O)(=O)Nc3cc(F)c(C(=O)N[C@@H](Cc4ccc(-n5c(=O)c6ccncc6n(C)c5=O)nc4)C(=O)O)cc3F)cc2)C(=O)C1(C)C [Compound A38] | 7.70
4 | Cn1c(=O)n(-c2ccc(C[C@H](NC(=O)c3cc(F)c(NS(=O)(=O)c4ccc(NC(=O)C5(c6ccccc6)CC5)cc4)cc3F)C(=O)O)cn2)c(=O)c2ccncc21 [Compound A29] | 7.27
5 | Cc1c(C)n(C)c(=O)n(-c2ccc(C[C@H](NC(=O)c3cc(F)c(NS(=O)(=O)c4cccc(NC(=O)C(C)(C)C)c4)cc3F)C(=O)O)cn2)c1=O [Compound A50] | 7.20
6 | Cc1cn(C)c(=O)n(-c2ccc(C[C@H](NC(=O)c3cc(F)c(NS(=O)(=O)c4ccc(NC(=O)C5CCCC5)cc4)cc3F)C(=O)O)cn2)c1=O [Compound A65] | 7.30
7 | Cc1cn(C)c(=O)n(-c2ccc(C[C@H](NC(=O)c3cc(F)c(NS(=O)(=O)c4ccc5c(NC(=O)C(C)(C)C)c[nH]c5c4)cc3F)C(=O)O)cn2)c1=O [Compound A74] | 7.30
8 | CCC(CC)C(=O)Nc1ccc(S(=O)(=O)Nc2cc(F)c(C(=O)N[C@@H](Cc3ccc(-n4c(=O)c(C)c(C)n(C)c4=O)cc3)C(=O)O)cc2F)cc1 [Compound A4] | 7.80
9 | Cc1cn(C)c(=O)n(-c2ccc(C[C@H](NC(=O)c3cc(F)c(NS(=O)(=O)c4c[nH]c5cc(NC(=O)C(C)(C)C)ccc45)cc3F)C(=O)O)cn2)c1=O [Compound A77] | 7.60
10 | Cn1ccc(=O)n(-c2ccc(C[C@H](NC(=O)c3cc(F)c(NS(=O)(=O)c4ccc(NC(=O)C5CCCC5)cc4)cc3F)C(=O)O)cn2)c1=O [Compound A64] | 7.05
11 | Cc1cn(C)c(=O)n(-c2ccc(C[C@H](NC(=O)c3cc(F)c(NS(=O)(=O)c4ccc(NC(=O)C(C)(C)C)cc4)cc3F)C(=O)O)nc2)c1=O [Compound A69] | 7.80
12 | CCC(CC)C(=O)Nc1ccc(S(=O)(=O)Nc2cc(F)c(C(=O)N[C@@H](Cc3ccc(-n4c(=O)ccn(C)c4=O)nc3)C(=O)O)cc2F)cc1 [Compound A61] | 7.21

The remaining lines, values ahead:

Row | pIC50 | SMILES
13 | 8.62 | Cn1c2c(c(=O)n(-c3ccc(C[C@H](NC(=O)c4cc(F)c(NS(=O)(=O)c5ccc(NC(=O)C(C)(C)C)cc5)cc4F)C(=O)O)cc3)c1=O)CCOC2 [Compound A27]
14 | 8.35 | Cn1c(=O)n(-c2ccc(C[C@H](NC(=O)c3cc(F)c(NS(=O)(=O)c4ccc(NC(=O)C(C)(C)C)s4)cc3F)C(=O)O)cc2)c(=O)c2ccncc21 [Compound A9]
15 | 8.34 | Cc1c(C)n(C)c(=O)n(-c2ccc(C[C@H](NC(=O)c3cc(F)c(NS(=O)(=O)c4ccc(NC(=O)C(C)(C)C)cn4)cc3F)C(=O)O)cc2)c1=O [Compound A19]
16 | 7.80 | CN1CCC(=O)N(c2ccc(C[C@H](NC(=O)c3cc(F)c(NS(=O)(=O)c4ccc(NC(=O)C(C)(C)C)cc4)cc3F)C(=O)O)cn2)C1=O [Compound A75, (2S)-2-[2,5-difluoro-4-[(4-pivalamidophenyl)sulfonamide]benzamido]-3-[6-(3-methyl-2,6-dioxotetrahydropyrimidin-1(2H)-yl)pyridin-3-yl]propanoic acid]
17 | 8.12 | Cc1cc(=O)n(-c2ccc(C[C@H](NC(=O)c3cc(F)c(NS(=O)(=O)c4ccc(NC(=O)C(C)(C)C)cc4)cc3F)C(=O)O)cc2)c(=O)n1C [Compound A46]
18 | 7.92 | Cc1cn(C)c(=O)n(-c2ccc(C[C@H](NC(=O)c3cc(F)c(NS(=O)(=O)c4ccc(NC(=O)C(C)(C)C(F)(F)F)cc4)cc3F)C(=O)O)cn2)c1=O [Compound A58]
19 | 8.00 | Cc1c(C)n(C)c(=O)n(-c2ccc(C[C@H](NC(=O)c3cc(F)c(NS(=O)(=O)c4ccc(NC(=O)C(C)(C)C)s4)cc3F)C(=O)O)cc2)c1=O [Compound A10]
20 | 8.19 | Cn1c(=O)n(-c2ccc(C[C@H](NC(=O)c3cc(F)c(NS(=O)(=O)c4ccc(NC(=O)C(C)(C)C)cc4)cc3F)C(=O)O)cn2)c(=O)c2ccncc21 [Compound A26]
21 | 8.37 | Cn1c2c(c(=O)n(-c3ccc(C[C@H](NC(=O)c4cc(F)c(NS(=O)(=O)c5ccc(NC(=O)C(C)(C)C)cc5)cc4F)C(=O)O)cn3)c1=O)CCOC2 [Compound A40]
22 | 8.24 | Cn1cnc2c1c(=O)n(-c1ccc(C[C@H](NC(=O)c3cc(F)c(NS(=O)(=O)c4ccc(NC(=O)C(C)(C)C)cc4)cc3F)C(=O)O)cc1)c(=O)n2C [Compound A43]
23 | 8.31 | Cn1c2c(c(=O)n(-c3ccc(C[C@H](NC(=O)c4cc(F)c(NS(=O)(=O)c5ccc(NC(=O)C(C)(C)C)cc5)cc4F)C(=O)O)cn3)c1=O)CCCC2 [Compound A52]
24 | 7.89 | Cc1c(CO)c(=O)n(-c2ccc(C[C@H](NC(=O)c3cc(F)c(NS(=O)(=O)c4ccc(NC(=O)C(C)(C)C)cc4)cc3F)C(=O)O)cc2)c(=O)n1C [Compound A51]
25 | 7.85 | Cc1cn(C)c(=O)n(-c2ccc(C[C@H](NC(=O)c3cc(F)c(NS(=O)(=O)c4cc5cc(NC(=O)C(C)(C)C)ccc5[nH]4)cc3F)C(=O)O)cn2)c1=O [Compound A76]
26 | 7.85 | Cn1ccc(=O)n(-c2ccc(C[C@H](NC(=O)c3cc(F)c(NS(=O)(=O)c4ccc(NC(=O)C(C)(C)C(F)(F)F)cc4)cc3F)C(=O)O)cn2)c1=O [Compound A57]
27 | 8.08 | Cc1cc(=O)n(-c2ccc(C[C@H](NC(=O)c3cc(F)c(NS(=O)(=O)c4ccc(NC(=O)C(C)(C)C)cc4)cc3F)C(=O)O)cn2)c(=O)n1C [Compound A45]

From patent US10562898B2, “Substituted benzenesulfonamides as inhibitors of alpha-4 beta-7 integrin activity” (EA PHARMA CO., LTD., priority 2016, dated 2020)
